Experimental findings from patent publication US8044035B2, “Pharmaceutical compositions of pyrimidine-2,4,6-triones” (priority 2004, dated 2011) are described below.

Like-named read-outs stand apart in the source and are kept apart here.

Series [1] can be described thus: Solubility of various trioxopyrimidines in the presence of HPβCD. The format is physicochemical. The following applies: HPβCD solution, 37 °C, aqueous with cosolvent or surfactant or cyclodextrin, thermodynamic from solid, read-out: Concentration (solubility). As to the method:
1.1 Weigh 20 mg of compound I. Add 2 ml of solution of HPβCD 200 mM. Stir for 24 h at 37° C. Filter in Millipore filter Millex HV 0.45 μm. The solution obtained after filtration contains the complex compound I-CD in solution.
1.2. Weigh 2.5 mg of compound I. Add 2 ml of solution of HPβCD 200 mM. Stir at 37° C. for 24 h or until compound I is completely dissolved. The solution obtained in this way contains the complex compound I-CD.
At the time of a complex formation, compound I, practically insoluble in water (<0.6 μg/ml, MW: 485), solubilizes dramatically. The increase in the solubility of compound I is thus proof of a complex formation between Compound I and the CD. Complex formation and achievement of the equilibrium is found at 20% after 1 day, 40% after 4 days, and 100% after 7 days. The solubility diagrams (FIG. 1) are carried out by adding an excess of compound I to the CD solutions of increasing concentration. After 7 days of stirring in thermostatically controlled baths at 37° C., these solutions are filtered and the solubilized compound I quantity is dosed by HPLC. The βCD and the γCD as well as their synthetic derivatives have allowed complexes with compound I to be formed. The β-CD and the HPβCD come from ROQUETTE (France), the RMβCD and the γCD have been supplied by Wacker (Germany).
The flasks containing compound I and the cyclodextrins are placed being stirred in thermostatically controlled baths at 37° C. for 7 days, so that the complexation balance is reached. After this time, the suspensions are filtered with the help of a milli-pore filter 0.22 μm in PVDF and the filtrate is dissolved in DMSO in the mobile phase to obtain concentration samples situating themselves on the calibrating line. They are then dosed thanks to the validated HPLC method, described below.
Solubility is investigated according to Examples 1 and 2.

Series [2] is described as follows: Differential solubility in acetonitrile of free and complexed compound I. In kind it is physicochemical. The source says: Compound I has different solubility when it is in the complex form or not. […] In these conditions the included drug remains trapped and becomes insoluble in the solvent. This technique of differential solubility between compound I in the free or in the complexed form can be applied to evaluate the percentage of complexation.

Consider `O=C1NC(=O)C(c2ccc(Oc3ccccc3)cc2)(N2CCN(c3ncccn3)CC2)C(=O)N1` [Compound II, 5-(4-Phenoxy-phenyl)-5-(4-pyrimidin-2-yl-piperazin-1-yl)-pyrimidine-2,4,6-trione], for which the solubility in series [1] (HPβCD 10 mM) is 1300 µg/mL; in series [1] (HPβCD 25 mM), 3400 µg/mL; in series [1] (HPβCD 50 mM), 3800 µg/mL; in series [1] (HPβCD 100 mM), 5900 µg/mL; in series [1] (HPβCD 200 mM), 9300 µg/mL.
For `O=C1NC(=O)C(c2ccc(Oc3ccc(Cl)cc3)cc2)(N2CCN(c3ncccn3)CC2)C(=O)N1` [Compound III, 5-[4-(4-Chloro-phenoxy)-phenyl]-5-(4-pyrimidin-2-yl-piperazin-1-yl)-pyrimidine-2,4,6-trione] the same measures were 800 µg/mL, 2400 µg/mL, 3100 µg/mL, 6100 µg/mL and 9500 µg/mL.
On the same counts, the results for `O=C1NC(=O)C(c2ccc(Oc3ccc(Cl)c(Cl)c3)cc2)(N2CCN(c3ncccn3)CC2)C(=O)N1` [Compound IV, 5-[4-(3,4-Dichloro-phenoxy)-phenyl]-5-(4-pyrimidin-2-yl-piperazin-1-yl)-pyrimidine-2,4,6-trione] are 100 µg/mL, 200 µg/mL, 900 µg/mL, 2700 µg/mL and 7900 µg/mL.
For `O=C1NC(=O)C(c2ccc(Oc3ccc(Br)cc3)cc2)(N2CCN(c3ncccn3)CC2)C(=O)N1` [Compound V, 5-[4-(4-Bromo-phenoxy)-phenyl]-5-(4-pyrimidin-2-yl-piperazin-1-yl)-pyrimidine-2,4,6-trione] the same measures were 800 µg/mL, 2400 µg/mL, 5400 µg/mL, 6600 µg/mL and 9900 µg/mL.
Consider Hydroxypropyl β-cyclodextrin [HP-β-CD], for which the Solubility in acetonitrile result in series [2] is recorded as “insoluble”.
